Test results from US20160367623A1, “AGONISTS OF GUANYLATE CYCLASE USEFUL FOR THE TREATMENT OF GASTROINTESTINAL DISORDERS, INFLAMMATION, CANCER AND OTHER DISORDERS” (priority 2015, published 2016).
Bridge positions count the residues as written; N and C are the ends. Ends that are not written are not given here.

Tested on: patients with chronic idiopathic constipation (CIC)
Assay: Second phase 3 CIC trial: change from baseline in CSBMs/week
Type: in vivo, human
Details: All Randomized (includes Duplicate Patients)
[1] = 3 mg, overall average estimate across the 12-week treatment period

Substance: Asn^1-Asp^2-Glu^3-Cys^4-Glu^5-Leu^6-Cys^7-Val^8-Asn^9-Val^10-Ala^11-Cys^12-Thr^13-Gly^14-Cys^15-Leu^16 (NDECELCVNVACTGCL; disulfide 4-12, 7-15) [Plecanatide, uroguanylin analogue, guanylate cyclase-C agonist; (C4:C12, C7:C15) bicycle peptide]
- Change from Baseline in CSBMs, Difference from Placebo (3 mg, Post-Treatment Week 13): 0.43 CSBMs/week
- Change from Baseline in CSBMs, LS Mean (SE) (3 mg, Post-Treatment Week 13): 1.91 (0.131) CSBMs/week
- Change from Baseline in CSBMs, Mean (SD) (3 mg, Post-Treatment Week 13): 1.87 (2.717) CSBMs/week
- Change from Baseline in CSBMs, Difference from Placebo (3 mg, Post-Treatment Week 14): 0.40 CSBMs/week
- Change from Baseline in CSBMs, LS Mean (SE) (3 mg, Post-Treatment Week 14): 1.78 (0.133) CSBMs/week
- Change from Baseline in CSBMs, Mean (SD) (3 mg, Post-Treatment Week 14): 1.75 (2.596) CSBMs/week
- Change from Baseline in CSBMs, Difference from Placebo (3 mg, Week 1): 0.90 CSBMs/week
- Change from Baseline in CSBMs, LS Mean (SE) (3 mg, Week 1): 1.72 (0.147) CSBMs/week
- Change from Baseline in CSBMs, Mean (SD) (3 mg, Week 1): 1.75 (2.737) CSBMs/week
- Change from Baseline in CSBMs, Difference from Placebo (3 mg, Week 2): 0.87 CSBMs/week
- Change from Baseline in CSBMs, LS Mean (SE) (3 mg, Week 2): 1.83 (0.147) CSBMs/week
- Change from Baseline in CSBMs, Mean (SD) (3 mg, Week 2): 1.82 (2.956) CSBMs/week
- Change from Baseline in CSBMs, Difference from Placebo (3 mg, Week 3): 0.77 CSBMs/week
- Change from Baseline in CSBMs, LS Mean (SE) (3 mg, Week 3): 1.94 (0.147) CSBMs/week
- Change from Baseline in CSBMs, Mean (SD) (3 mg, Week 3): 1.94 (3.084) CSBMs/week
- Change from Baseline in CSBMs, Difference from Placebo (3 mg, Week 4): 0.95 CSBMs/week
- Change from Baseline in CSBMs, LS Mean (SE) (3 mg, Week 4): 2.17 (0.148) CSBMs/week
- Change from Baseline in CSBMs, Mean (SD) (3 mg, Week 4): 2.20 (3.352) CSBMs/week
- Change from Baseline in CSBMs, Difference from Placebo (3 mg, Week 5): 0.87 CSBMs/week
- Change from Baseline in CSBMs, LS Mean (SE) (3 mg, Week 5): 2.30 (0.149) CSBMs/week
- Change from Baseline in CSBMs, Difference from Placebo (3 mg, Week 6): 1.00 CSBMs/week
- Change from Baseline in CSBMs, LS Mean (SE) (3 mg, Week 6): 2.30 (0.149) CSBMs/week
- Change from Baseline in CSBMs, Difference from Placebo (3 mg, Week 7): 0.82 CSBMs/week
- Change from Baseline in CSBMs, LS Mean (SE) (3 mg, Week 7): 2.28 (0.150) CSBMs/week
- Change from Baseline in CSBMs, Difference from Placebo (3 mg, Week 8): 1.01 CSBMs/week
- Change from Baseline in CSBMs, LS Mean (SE) (3 mg, Week 8): 2.49 (0.150) CSBMs/week
- Change from Baseline in CSBMs, Difference from Placebo (3 mg, Week 9): 0.93 CSBMs/week
- Change from Baseline in CSBMs, LS Mean (SE) (3 mg, Week 9): 2.46 (0.150) CSBMs/week
- Change from Baseline in CSBMs, Difference from Placebo (3 mg, Week 10): 0.84 CSBMs/week
- Change from Baseline in CSBMs, LS Mean (SE) (3 mg, Week 10): 2.46 (0.150) CSBMs/week
- Change from Baseline in CSBMs, Difference from Placebo (3 mg, Week 11): 0.96 CSBMs/week
- Change from Baseline in CSBMs, LS Mean (SE) (3 mg, Week 11): 2.53 (0.151) CSBMs/week
- Change from Baseline in CSBMs, Difference from Placebo (3 mg, Week 12): 0.95 CSBMs/week
- Change from Baseline in CSBMs, LS Mean (SE) (3 mg, Week 12): 2.58 (0.151) CSBMs/week
- Change from Baseline in CSBMs, Difference from Placebo [1]: 0.91 CSBMs/week
- Change from Baseline in CSBMs, LS Mean (SE) [1]: 2.25 (0.129) CSBMs/week
- Change from Baseline in CSBMs, Difference from Placebo (6 mg, Post-Treatment Week 13): 0.16 CSBMs/week
- Change from Baseline in CSBMs, LS Mean (SE) (6 mg, Post-Treatment Week 13): 1.64 (0.130) CSBMs/week
- Change from Baseline in CSBMs, Mean (SD) (6 mg, Post-Treatment Week 13): 1.59 (2.376) CSBMs/week
- Change from Baseline in CSBMs, Difference from Placebo (6 mg, Post-Treatment Week 14): 0.30 CSBMs/week
- Change from Baseline in CSBMs, LS Mean (SE) (6 mg, Post-Treatment Week 14): 1.67 (0.133) CSBMs/week
- Change from Baseline in CSBMs, Mean (SD) (6 mg, Post-Treatment Week 14): 1.62 (2.588) CSBMs/week
- Change from Baseline in CSBMs, Difference from Placebo (6 mg, Week 1): 0.88 CSBMs/week
- Change from Baseline in CSBMs, LS Mean (SE) (6 mg, Week 1): 1.70 (0.146) CSBMs/week
- Change from Baseline in CSBMs, Mean (SD) (6 mg, Week 1): 1.71 (2.870) CSBMs/week
- Change from Baseline in CSBMs, Difference from Placebo (6 mg, Week 2): 0.85 CSBMs/week
- Change from Baseline in CSBMs, LS Mean (SE) (6 mg, Week 2): 1.81 (0.146) CSBMs/week
- Change from Baseline in CSBMs, Mean (SD) (6 mg, Week 2): 1.83 (3.118) CSBMs/week
- Change from Baseline in CSBMs, Difference from Placebo (6 mg, Week 3): 0.65 CSBMs/week
- Change from Baseline in CSBMs, LS Mean (SE) (6 mg, Week 3): 1.81 (0.147) CSBMs/week
- Change from Baseline in CSBMs, Mean (SD) (6 mg, Week 3): 1.83 (2.927) CSBMs/week
- Change from Baseline in CSBMs, Difference from Placebo (6 mg, Week 4): 0.80 CSBMs/week
- Change from Baseline in CSBMs, LS Mean (SE) (6 mg, Week 4): 2.02 (0.147) CSBMs/week
- Change from Baseline in CSBMs, Difference from Placebo (6 mg, Week 5): 0.50 CSBMs/week
- Change from Baseline in CSBMs, LS Mean (SE) (6 mg, Week 5): 1.93 (0.147) CSBMs/week
- Change from Baseline in CSBMs, Difference from Placebo (6 mg, Week 6): 0.91 CSBMs/week
- Change from Baseline in CSBMs, LS Mean (SE) (6 mg, Week 6): 2.21 (0.148) CSBMs/week
- Change from Baseline in CSBMs, Difference from Placebo (6 mg, Week 7): 0.81 CSBMs/week
- Change from Baseline in CSBMs, LS Mean (SE) (6 mg, Week 7): 2.27 (0.148) CSBMs/week
- Change from Baseline in CSBMs, Difference from Placebo (6 mg, Week 8): 0.81 CSBMs/week
- Change from Baseline in CSBMs, LS Mean (SE) (6 mg, Week 8): 2.29 (0.148) CSBMs/week
- Change from Baseline in CSBMs, Difference from Placebo (6 mg, Week 9): 0.81 CSBMs/week
- Change from Baseline in CSBMs, LS Mean (SE) (6 mg, Week 9): 2.34 (0.149) CSBMs/week
- Change from Baseline in CSBMs, Difference from Placebo (6 mg, Week 10): 0.85 CSBMs/week
- Change from Baseline in CSBMs, LS Mean (SE) (6 mg, Week 10): 2.47 (0.149) CSBMs/week
- Change from Baseline in CSBMs, Difference from Placebo (6 mg, Week 11): 0.83 CSBMs/week
- Change from Baseline in CSBMs, LS Mean (SE) (6 mg, Week 11): 2.40 (0.149) CSBMs/week
- Change from Baseline in CSBMs, Difference from Placebo (6 mg, Week 12): 0.86 CSBMs/week
- Change from Baseline in CSBMs, LS Mean (SE) (6 mg, Week 12): 2.49 (0.150) CSBMs/week
- Change from Baseline in CSBMs, Difference from Placebo (6 mg, overall average estimate across the 12-week treatment period): 0.80 CSBMs/week
